This passage reports IC50 results from US20260248783A1 (ASCLETIS BIOSCIENCE CO., LTD., priority 2021, published 2026).

T1 sequence (Q9NZQ7 19-238): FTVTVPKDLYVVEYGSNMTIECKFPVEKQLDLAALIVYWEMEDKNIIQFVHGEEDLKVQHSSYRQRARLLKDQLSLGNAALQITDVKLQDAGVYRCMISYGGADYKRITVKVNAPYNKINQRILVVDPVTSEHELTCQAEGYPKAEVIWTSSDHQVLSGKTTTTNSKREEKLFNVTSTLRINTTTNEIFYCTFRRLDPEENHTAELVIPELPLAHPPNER

This assay has as its target T1, PD-1/PD-L1 (Homo sapiens, UniProt Q9NZQ7).
T1 construct: Recombinant human PD-L1 protein (19-238) with a Histag at the C-terminus; purchased AcroBiosystems PD1-H5229 (PD-L1); PD1-H5257 (PD-1)
Put plainly: PD-1/PD-L1 Homogeneous Time-Resolved Fluorescence (HTRF) Binding Assay. The following applies: PD-1/PD-L1 HTRF activity; 3 nM PD1, 10 nM PD-L1, 25° C. As for the experimental part:
Example 107. PD-1/PD-L1 Homogeneous Time-Resolved Fluorescence (HTRF) Binding Assay
The assays were conducted in a standard black 384-well polystyrene plate with a final volume of 20 μL. Inhibitors were first serially diluted in DMSO and then added to the plate wells before the addition of other reaction components. The final concentration of DMSO in the assay was 1%. The assays were carried out at 25° C. in the PBS buffer (pH 7.4) with 0.05% Tween-20 and 0.1% BSA. Recombinant human PD-L1 protein (19-238) with a Histag at the C-terminus was purchased from AcroBiosystems (PD1-H5229). Recombinant human PD-1 protein (25-167) with Fe tag at the C-terminus was also purchased from AcroBiosystems (PD1-H5257). PD-L1 and PD-1 proteins were diluted in the assay buffer and 10 μL was added to the plate well. Plates were centrifuged and proteins were preincubated with inhibitors for 40 minutes. The incubation was followed by the addition of 10 μL of HTRF detection buffer supplemented with Europium cryptate-labeled anti-human IgG (PerkinElmer-AD0212) specific for Fe and anti-His antibody conjugated to SureLight®—Allophycocyanin (APC, PerkinElmer-AD0059H). After centrifugation, the plate was incubated at 25° C. for 60 min. before reading on a PHERAstar FS plate reader (665 nm/620 nm ratio). Final concentrations in the assay were […], 10 nM PD-L1, 1 nM europium anti-human IgG and 20 nM anti-His-Allophycocyanin. IC50 determination was performed by fitting the curve of percent control activity versus the log of the inhibitor concentration.
On the technique in general: TR-FRET usually uses a lanthanide donor and a delayed reading to cut background.
On to `Cc1cn2nc(-c3cccc(-c4cccc(-c5cc6c(=O)n(CCN[C@@H](CN)C(=O)O)c(C)cn6n5)c4Cl)c3Cl)cc2c(=O)n1CCNC(CN)C(=O)O` (stereo in doubt) [Compound 67, (2S,2'S)-2,2′-((((2,2′-dichloro-[1,1′-biphenyl]-3,3′-diyl)bis(6-methyl-4-oxopyrazolo[1,5-a]pyrazine-2,5(4H)-diyl))bis(ethane-2,1-diyl))bis(azanediyl))bis(3-aminopropanoic acid)], for which the half-inhibitory concentration (IC50) (in general, the concentration needed to halve the response being measured) was not below 0.1 µM.

Take `O=C1CC[C@@H](Cn2cnc3sc(-c4cccc(-c5cccc(-c6cc7c(=O)n(C[C@@H]8CCC(=O)N8)cnc7s6)c5Cl)c4Cl)cc3c2=O)N1` [Compound 2, 6,6′-(2,2′-dichloro-[1,1′-biphenyl]-3,3′-diyl)bis(3-(((S)-5-oxopyrrolidin-2-yl)methyl)thieno[2,3-d]pyrimidin-4(3H)-one)]: the IC50 lay in the range of 0.01 to 0.1 µM.

`O=C1CCC(Cn2cnn3c(F)c(-c4cccc(-c5cccc(-c6cc7c(=O)n(CC8CCC(=O)N8)cnn7c6F)c5Cl)c4Cl)cc3c2=O)N1` (stereo not drawn) [Compound 3, 6,6′-(2,2′-dichloro-[1,1′-biphenyl]-3,3′-diyl)bis(7-fluoro-3-((5-oxopyrrolidin-2-yl)methyl)pyrrolo[2,1-f][1,2,4]triazin-4(3H)-one)] returned an IC50 of less than 0.01 µM.

As for `Cn1c(-c2cccc(-c3cccc(-c4cc5ncn(C[C@@H]6CCC(=O)N6)c(=O)c5n4C)c3Cl)c2Cl)cc2ncn(C[C@@H]3CCC(=O)N3)c(=O)c21` [Compound 4, 6,6′-(2,2′-dichloro-[1,1′-biphenyl]-3,3′-diyl)bis(5-methyl-3-(((S)-5-oxopyrrolidin-2-yl)methyl)-3,5-dihydro-4H-pyrrolo[3,2-d]pyrimidin-4-one)], the IC50 is not below 0.1 µM.

As to `O=C1CC[C@@H](Cn2ccn3cc(-c4cccc(-c5cccc(-c6cc7c(=O)n(C[C@@H]8CCC(=O)N8)ccn7c6)c5Cl)c4Cl)cc3c2=O)N1` [Compound 5, 7,7′-(2,2′-dichloro-[1,1′-biphenyl]-3,3′-diyl)bis(2-(((S)-5-oxopyrrolidin-2-yl)methyl)pyrrolo[1,2-a]pyrazin-1(2H)-one)], the IC50 fell in the range of 0.01 to 0.1 µM.

`Cn1c(-c2cccc(-c3cccc(-c4nc5c(=O)n(C[C@@H]6CCC(=O)N6)ccc5n4C)c3Cl)c2Cl)nc2c(=O)n(C[C@@H]3CCC(=O)N3)ccc21` [Compound 6, 2,2′-(2,2′-dichloro-[1,1′-biphenyl]-3,3′-diyl)bis(1-methyl-5-(((S)-5-oxopyrrolidin-2-yl)methyl)-1,5-dihydro-4H-imidazo[4,5-c]pyridin-4-one)] came in with an IC50 not below 0.1 µM.

As to `O=C1CC[C@@H](Cn2ccn3nc(-c4cccc(-c5cccc(-c6cc7c(=O)n(C[C@@H]8CCC(=O)N8)ccn7n6)c5Cl)c4Cl)cc3c2=O)N1` [Compound 7, 2,2′-(2,2′-dichloro-[1,1′-biphenyl]-3,3′-diyl)bis(5-(((S)-5-oxopyrrolidin-2-yl)methyl)pyrazolo[1,5-a]pyrazin-4(5H)-one)], the IC50 was less than 0.01 µM.

Consider `O=C1CC[C@@H](Cn2ccc3sc(-c4cccc(-c5cccc(-c6cc7c(=O)n(C[C@@H]8CCC(=O)N8)ccc7s6)c5Cl)c4Cl)cc3c2=O)N1` [Compound 8, 2,2′-(2,2′-dichloro-[1,1′-biphenyl]-3,3′-diyl)bis(5-(((S)-5-oxopyrrolidin-2-yl)methyl)thieno[3,2-c]pyridin-4(5H)-one)], for which the IC50 was 0.01 to 0.1 µM.

Turning to `O=C1CC[C@@H](CN2CCn3cc(-c4cccc(-c5cccc(-c6cc7n(c6)CCN(C[C@@H]6CCC(=O)N6)C7=O)c5Cl)c4Cl)cc3C2=O)N1` [Compound 9, 7,7′-(2,2′-dichloro-[1,1′-biphenyl]-3,3′-diyl)bis(2-(((S)-5-oxopyrrolidin-2-yl)methyl)-3,4-dihydropyrrolo[1,2-a]pyrazin-1(2H)-one)], the IC50 is not below 0.1 µM.

In turn, `Cn1c(-c2cccc(-c3cccc(-c4nc5c(c(=O)n(C[C@@H]6CCC(=O)N6)c(=O)n5C)n4C)c3Cl)c2Cl)nc2c1c(=O)n(C[C@@H]1CCC(=O)N1)c(=O)n2C` [Compound 10, 8,8′-(2,2′-dichloro-[1,1′-biphenyl]-3,3′-diyl)bis(3,7-dimethyl-1-(((S)-5-oxopyrrolidin-2-yl)methyl)-3,7-dihydro-1H-purine-2,6-dione)] had an IC50 not below 0.1 µM.

`O=C1CC[C@@H](Cn2ncn3cc(-c4cccc(-c5cccc(-c6cc7c(=O)n(C[C@@H]8CCC(=O)N8)ncn7c6)c5Cl)c4Cl)cc3c2=O)N1` [Compound 11, 7,7′-(2,2′-dichloro-[1,1′-biphenyl]-3,3′-diyl)bis(2-(((S)-5-oxopyrrolidin-2-yl)methyl)pyrrolo[1,2-d][1,2,4]triazin-1(2H)-one)] registered an IC50 not below 0.1 µM.

On to `O=C1CC[C@@H](Cn2ccn3cc(-c4cccc(-c5cccc(-c6cn7ccn(C[C@@H]8CCC(=O)N8)c(=O)c7n6)c5Cl)c4Cl)nc3c2=O)N1` [Compound 12, 2,2′-(2,2′-dichloro-[1,1′-biphenyl]-3,3′-diyl)bis(7-(((S)-5-oxopyrrolidin-2-yl)methyl)imidazo[1,2-a]pyrazin-8(7H)-one)], for which the IC50 fell in the range of 0.01 to 0.1 µM.

In the case of `O=C1CC[C@@H](Cn2ccn3c(F)c(-c4cccc(-c5cccc(-c6nc7c(=O)n(C[C@@H]8CCC(=O)N8)ccn7c6F)c5Cl)c4Cl)nc3c2=O)N1` [Compound 13, 2,2′-(2,2′-dichloro-[1,1′-biphenyl]-3,3′-diyl)bis(3-fluoro-7-(((S)-5-oxopyrrolidin-2-yl)methyl)imidazo[1,2-a]pyrazin-8(7H)-one)], the half-inhibitory concentration (IC50) is not below 0.1 µM.

`O=C1CC[C@@H](Cn2cnc3[nH]c(-c4cccc(-c5cccc(-c6cc7c(=O)n(C[C@@H]8CCC(=O)N8)cnc7[nH]6)c5Cl)c4Cl)cc3c2=O)N1` [Compound 14, 6,6′-(2,2′-dichloro-[1,1′-biphenyl]-3,3′-diyl)bis(3-(((S)-5-oxopyrrolidin-2-yl)methyl)-3,7-dihydro-4H-pyrrolo[2,3-d]pyrimidin-4-one)] returned an IC50 of 0.01 to 0.1 µM.

The compound `O=C1CC[C@@H](Cn2ccn3nc(-c4cccc(-c5cccc(-c6nc7c(=O)n(C[C@@H]8CCC(=O)N8)ccn7n6)c5Cl)c4Cl)nc3c2=O)N1` [Compound 15, 2,2′-(2,2′-dichloro-[1,1′-biphenyl]-3,3′-diyl)bis(7-(((S)-5-oxopyrrolidin-2-yl)methyl)-[1,24]triazolo[1,5-a]pyrazin-8(7H)-one)] showed an IC50 of less than 0.01 µM.

As for `O=C1CCC(Cn2cc(F)n3cc(-c4cccc(-c5cccc(-c6cc7c(=O)n(CC8CCC(=O)N8)cc(F)n7c6)c5Cl)c4Cl)cc3c2=O)N1` (stereo not drawn) [Compound 16, 7,7′-(2,2′-dichloro-[1,1′-biphenyl]-3,3′-diyl)bis(4-fluoro-2-((5-oxopyrrolidin-2-yl)methyl)pyrrolo[1,2-a]pyrazin-1(2H)-one)], the IC50 was in the range of 0.01 to 0.1 µM.

On to `Cc1c(-c2cc3c(=O)n(C[C@@H]4CCC(=O)N4)cnn3c2)cccc1-c1cccc(-c2cc3c(=O)n(C[C@@H]4CCC(=O)N4)cnn3c2)c1C` [Compound 17, 6,6′-(2,2′-dimethyl-[1,1′-biphenyl]-3,3′-diyl)bis(3-(((S)-5-oxopyrrolidin-2-yl)methyl)pyrrolo[2,1-f][1,2,4]triazin-4(3H)-one)], for which the half-inhibitory concentration (IC50) is less than 0.01 µM.

`O=C1CC(Cn2cnn3cc(-c4cccc(-c5cccc(-c6cc7c(=O)n(CC8CNC(=O)C8)cnn7c6)c5Cl)c4Cl)cc3c2=O)CN1` (stereo not drawn) [Compound 18, 6,6′-(2,2′-dichloro-[1,1′-biphenyl]-3,3′-diyl)bis(3-((5-oxopyrrolidin-3-yl)methyl)pyrrolo[2,1-f][1,2,4]triazin-4(3H)-one)] had an IC50 of 0.01 to 0.1 µM.
